Laboratory results taken from patent US9028880B2, “Silica nanoparticle agent conjugates” (priority 2010, dated 2015).

Assays:
[1] = tested on: LLC tumor; experiment: In vivo tumor reduction study, single i.v. injection; set-up: species or system C57Bl/6 mice; details: emulsified Cpt 30 mg/kg i.v.; all animals reached end point at about day 5
Protocol: The efficacy of the drug conjugated silica NPs was next evaluated using xenograft models of LLC tumor developed by s.c. injection of LLC cells in the flank of C57BL/6 mice. […] Using Cpt as a reference point, the following regimens were administrated by a single i.v. injection: a, PBS; b, PEGylated blank silica NPs; c, emulsified Cpt, 30 mg/kg; d, Cpt-NP, 200 nm, 25 mg/kg; e, Cpt-NP, 20 nm, 25 mg/kg. Tumor size and body weight were then monitored for 10 days. […] Both Cpt-NPs 20 nm and 200 nm in diameter delayed tumor growth at Day 7 and 6, respectively, with statistical significance comparing with control group receiving PBS (p<0.05 by t-test). […] All animals in free Cpt group reached end point with >20% body weight loss at about day 5.
4.5. In vivo Tumor Reduction Study. Female C57Bl/6 mice, 8-week old, were anesthetized, shaved, and prepared for implantation of the tumor cells. […] After two weeks when tumors had reached ˜300 mm^3, mice were divided into five groups of five mice, minimizing weight and tumor size difference. Tumor-bearing mice were treated by intravenous injection of PBS (1×), PEGylated blank silica NPs (250 mg/kg), emulsified free CPT (Tween 80 (5%)/DMSO (10%) in PBS (1×), 30 mg/kg), CPT-NP (200 nm, 25 mg/kg) or CPT-NP (20 nm, 25 mg/kg). […]

[2] = tested on: LNCaP prostate adenocarcinoma cells; experiment: In vitro toxicity (MTT assay); format: cell-based; details: Homo sapiens, MTT assay after 96 h, CPT or equivalent CPT
Protocol: 3.3. In vitro toxicity (MTT assay). LNCaP prostate adenocarcinoma cell lines were obtained from ATCC (Manassas, Va., USA). Cells were seeded in 96-well plates at 5,000 cells/well and grown in medium containing 10% fetal bovine serum at 37° C. for 24 h in a humidified 5% CO2 atmosphere. The medium was replaced with fresh medium containing CPT, CPT-NPs in concentrations ranging from 1 nM to 10 μM of CPT or equivalent CPT (CPT-NPs). At each concentration, six wells per plate were treated. The effect of the compounds on cell growth was measured by the MTT assay after 96 h. The medium was removed, the cells were rinsed with PBS, MTT solution was added at a concentration of 0.5 mg/mL, and the plates were incubated for 4 hours at 37° C. The medium was removed and the formazan crystals were solubilized in MTT solubilization solution. Absorbance was measured at 560 nm using a Victor V microplate reader (Perkin Elmer, Waltham, Mass.). The percentage of cell survival was calculated relative to untreated cells, and IC50 values were determined from plots of cell survival versus dose (Table 4).

[3] = tested on: LLC tumor; experiment: In vivo tumor prevention study; set-up: species or system C57Bl/6 mice; details: s.c. co-injection with LLC cells
Protocol: To access the ability of Cpt-NCs to prevent establishment of a murine lung cancer in an in vivo model, Cpt-NCs were evaluated in the rapidly growing subcutaneous (s.c.) LLC tumor model in C57Bl/6 female mice. The ability of Cpt50 (5 mg/kg) to prevent LLC tumor establishment and growth was assessed by comparing to free Cpt (5 mg/kg) and LLC cancer cells alone without any treatment. The mice were s.c. injected with the mixture of [LLC and Cpt50], [LLC and Cpt] or LLC alone Animals were monitored clinically and the tumors were measured daily without knowledge of the treatment received.
Female C57Bl/6 mice, 12-13 weeks old, were anesthetized, shaved, and prepared for implantation of the tumor cells. LLC cells were collected from culture, and 750,000 cells were then mixed with Cpt50 and immediately injected subcutaneously into one flank of a mouse. The dose of equivalent Cpt was 5 mg/kg. Equivalent injections of cells with free CPT solubilized with Tween 80 (5%)/DMSO (10%) or PBS were also performed (n=5). The simultaneous injection procedure is required to assure that the cancer cells and the treatment are delivered to the same subcutaneous pocket as it would be easy to accidentally inject into different spaces when performing two separate injections.

[4] = tested on: MCF-7 tumors; experiment: In vivo tumor reduction study, MCF-7 xenograft
Protocol: To further study the effect of particle size, a xenograft human breast cancer model was chosen. Subcutaneous MCF-7 tumors developed on the flank of athymic nude mice were used to evaluate the antitumor efficacy of the drug-silica nanoconjugates with different sizes. The nude mice were implanted with an estrogen pellet and 1,000,000 MCF-7 cells per site. After tumors had developed to ˜40 mm^3, comparative efficacy studies were performed by dividing animals into six groups (n=20 or 24) to minimize weight and tumor size differences among the groups.
Female athymic nude, OVX, 9-week old mice were anesthetized, and prepared for implantation of the tumor cells. […]
After dosing, the animals were monitored closely, and measurements of the tumor size for each animal were performed at regular intervals using calipers without knowledge of which injection each animal had received. The tumor volume for each time point was calculated according to the formula (length)×(width)/2, where the long axis is the length, the short axis is the width. […] When an animal exited the study due to tumor size or treatment related death, the final tumor size recorded for the animal was included with the data used to calculate the mean size at subsequent time point.

CC[C@@]1(O)C(=O)OCc2c1cc1n(c2=O)Cc2cc3ccccc3nc2-1 [CPT, Camptothecin]
body weight loss [1]: > 20% | IC50 [2]: 7 nM | Day of statistically significant difference vs LLC group ([3]; 5 mg/kg): 20 days | Tumor growth prevention ([3]; 5 mg/kg equivalent Cpt): complete inhibition of tumor growth after Day 20

CCc1c2c(nc3ccc(OC(=O)N4CCC(N5CCCCC5)CC4)cc13)-c1cc3c(c(=O)n1C2)COC(=O)[C@]3(O)CC [Irinotecan]
Day from which tumor growth delay was significant vs PBS group ([4]; NCs 20 mg/kg i.v. Q4d×3, Irinotecan 100 mg/kg i.p. Qwk×3, *p<0.05): 8 days | Body weight / systemic toxicity ([4]; NCs 20 mg/kg, Irinotecan 100 mg/kg): Significant body weight loss
